In patent US20030181374A1, “Methods and compositions for stimulating bone growth using inhibitors of microtubule assembly” (priority 2002, published 2003):
Marks after values point to notes of the source that are not given here. Where a SMILES comes first, the peptide text is derived from it. The star is where a group is joined. Cbz = O=C(OCc1ccccc1)*; OtBu = CC(C)(C)O*

Key:
[1] = system: Calvariae of one-month-old ICR Swiss mice; test: New bone formation on calvariae (new bone width by histomorphometry); type: in vivo; conditions: x2d, mean ± SE, n=5
Description: (§1) Male ICR Swiss white mice, aged 4-6 weeks and weighing 13-26 gm, are employed, using 4-5 mice per group. The calvarial bone growth assay is performed as described in PCT application WO95/24211, incorporated by reference. Briefly, the test compound or appropriate control vehicle is injected into the subcutaneous tissue over the right calvaria of normal mice. Typically, the control vehicle is the vehicle in which the compound was solubilized, and is PBS containing 5% DMSO or is PBS containing Tween (2 μl/10 ml). The animals are sacrificed on day 14 and bone growth measured by histomorphometry. Bone samples for quantitation are cleaned from adjacent tissues and fixed in 10% buffered formalin for 24-48 hours, decalcified in 14% EDTA for 1-3 weeks, processed through graded alcohols; and embedded in paraffin wax. Three to five μm sections of the calvaria are prepared, and representative sections are selected for histomorphometric assessment of the effects on bone formation and bone resorption. Sections are measured by using a camera lucida attachment to trace directly the microscopic image onto a digitizing plate. Bone changes are measured on sections cut 200 μm apart, over 4 adjacent 1×1 mm fields on both the injected and noninjected sides of the calvaria. New bone is identified by its characteristic woven structure, and osteoclasts and osteoblasts are identified by their distinctive morphology. Histomorphometry software (OsteoMeasure, Osteometrix, Inc., Atlanta) is used to process digitizer input to determine cell counts and measure areas or perimeters.
as §1, with “In more detail, male” for “Male”, “above.” for “in PCT application WO95/24211, incorporated by reference.”
Selected compounds and appropriate controls were assayed in vitro (ex vivo) for bone formation activity (described above in “Techniques for Neonatal Mouse Calvaria Assay (in vitro)). Histomorphometrical assessments of ex vivo calvaria were carried out using an OsteoMetrics bone morphometry measurement program, according to the manufacturer's instructions. Measurements were determined using either a 10- or 20-fold objective with a standard point counting eyepiece graticule.
New bone formation was determined (using a 10× objective) by measuring the new bone area formed in one field in 3 representative sections of each bone (4 bones per group). Each measurement was carried out ½ field distance from the end of the suture. Both total bone and old bone area were measured. Data were expressed as new bone width in mm.

[2] = system: ICR Swiss mice; test: Bone volume and bone formation rates in ICR Swiss mice; type: in vivo; conditions: n=10
Description: Briefly, test compound, positive control compound, PBS, or vehicle alone is administered subcutaneously once per day for 35 days. All animals are injected with calcein nine days and two days before sacrifice (two injections of calcein administered each designated day). Weekly body weights are determined. At the end of the 35-day cycle, the animals are weighed and bled by orbital or cardiac puncture. Serum calcium, phosphate, osteocalcin, and CBCs are determined. Both leg bones (femur and tibia) and lumbar vertebrae are removed, cleaned of adhering soft tissue, and stored in 70% ethanol for evaluation, as performed by peripheral quantitative computed tomography (pQCT; Ferretti, J., Bone (1995) 17:353S-64S), dual energy X-ray absorptiometry (DEXA; Laval-Jeantet A., et al., Calcif Tissue Intl (1995) 56:14-18; J. Casez, et al., Bone and Mineral (1994) 26:61-68) and/or histomorphometry. The effect of test compounds on bone remodeling can thus be evaluated.
Microtubule Inhibitor TN-16 Increases Bone Volume and Bone Formation Rates in ICR Swiss Mice.

[3] = system: mice; test: In vivo assay for bone mineral density; conditions: x2d, mean ± SE, n=10
[4] = system: BMP2 promoter-Luc; test: High throughput screening: BMP2 promoter-luciferase reporter in 2T3-BMP-2-LUC osteoblast cells; type: cell-based, mouse; conditions: 2T3 cells, mean ± SE, n=4
Excerpt: 2, 1995, the entire contents of which are incorporated herein by reference. This assay is also described as a portion of a study of immortalized murine osteoblasts (derived from a mouse expressing a transgene composed of a BMP2 promoter driving expression of T-antigen) in Ghosh-Choudhery, N., et al., Endocrinology (1996) 137:331-39. In this study, the immortalized cells were stably transfected with a plasmid containing a luciferase reporter gene driven by a mouse BMP2 promoter (˜2736/114 bp), and responded in a dose-dependent manner to recombinant human BMP2.
Briefly, the assay utilizes cells transformed permanently or transiently with constructs in which the promoter of a bone morphogenetic protein, specifically BMP2 or BMP4, is coupled to a reporter gene, typically luciferase. These transformed cells are then evaluated for the production of the reporter gene product; compounds that activate the BMP promoter will drive production of the reporter protein, which can be readily assayed. Many thousands of compounds have been subjected to this rapid screening technique, and only a very small percentage are able to elicit a level of expression of reporter gene 5-fold greater than that produced by vehicle. […] The active compounds (“BMP promoter-active compounds” or “active compounds”) are useful in promoting bone or cartilage growth, and thus in the treatment of vertebrates in need of bone or cartilage growth.
In more detail, the 2T3-BMP-2-LUC cells, a stably transformed osteoblast cell line described in Ghosh-Choudhury et al. Endocrinology (1996) 137:331-39, referenced above, was employed. The cells were cultured using α-MEM, 10% FCS with 1% penicillin/streptomycin and 1% glutamine (“plating medium”), and were split 1:5 once per week. For the assay, the cells were resuspended in a plating medium containing 4% FCS, plated in microtiter plates at a concentration of 5×10^3 cells (in 50 μl)/well, and incubated for 24 hours at 37° C. in 5% CO2. To initiate the assay, 50 μl of the test compound or the control in DMSO was added at 2× concentration to each well, so that the final volume was 100 μl. The final serum concentration was 2% FCS, and the final DMSO concentration was 1%. Compound 59-0008 (10 μM) was used as a positive control.
The treated cells were incubated for 24 hours at 37° C. and 5% CO2. The medium was then removed, and the cells were rinsed three times with PBS. After removal of excess PBS, 25 μl of 1× cell culture lysing reagent (Promega #E153A) was added to each well and incubated for at least ten minutes. Optionally, the plates/samples could be frozen at this point. To each well was added 50 μl of luciferase substrate (Promega #E152A; 10 ml Promega luciferase assay buffer per 7 mg Promega luciferase assay substrate). Luminescence was measured on an automated 96-well luminometer, and was expressed as either picograms of luciferase activity per well or as picograms of luciferase activity per microgram of protein, as provided below, using TN-16 as the test compound.

COc1cc2c(c(OC)c1OC)-c1ccc(OC)c(=O)cc1C(NC(C)=O)CC2 (stereo not drawn) [Colchicine, N-(5,6,7,9-Tetrahydro-1,2,3,10-tetra-methoxy-9-oxobenzo[a]heptalen-7-yl) acetamide] was tested, and the “New Bone Width” value ([1]; 0.1 mg/kg/d) was 0.225 ± 0.013 mm and the “New Bone Width” value ([1]; 1.0 mg/kg/d) was 0.305 ± 0.020 mm.
For COC(=O)Nc1nc2cc(C(=O)c3cccs3)ccc2[nH]1 [Nocodazole, Methyl-[5-(2-thienylcarbonyl)-1 H-benzimidazole-2-yl]-carbamate], the “New Bone Width” value ([1]; 1.5 mg/kg/d) was 0.231 ± 0.027 mm.
In the case of CCC(C)C(NC(=O)OCc1ccccc1)C(=O)NC(CCC(=O)OC(C)(C)C)C(=O)NC(C)C(=O)NC(C=O)CC(C)C (stereo not drawn) [Ps-1] (Cbz-IE(OtBu)AL-aldehyde; configuration not given here), the “Bone Formation Rate: BFR/BS” value ([2]; 1 mg/kg/d, x5, mean ± SE) is reported as 1.766 ± 0.425* μm^3/μm^2/day and the “Bone Volume (%, BV/TV)” value ([2]; 1 mg/kg/d, x5, mean ± SE) is reported as 27.13 ± 1.51 %.
CC(Nc1ccccc1)=C1C(=O)NC(Cc2ccccc2)C1=O (stereo not drawn) [TN-16, 3-(1-Anilinoethylidene)-5-benzylpyrrolidine-2,4-dione] was tested, and the BMD ([3]; Calvariae (1-month-old mice), 4 mg/kg/d) was 26.0 ± 0.7 mg/cm^2, the BMD ([3]; Calvariae (1-month-old mice), 8 mg/kg/d) was 31.3 ± 0.5 mg/cm^2 and the BMD ([3]; Femora (3-month-old mice), 2 mg/kg/d) was 90.1 ± 2.2 mg/cm^2. For the same compound, the BMD ([3]; Femora (3-month-old mice), 4 mg/kg/d) was 100.9 ± 1.6 mg/cm^2, the BMD ([3]; Femora (3-month-old mice), 8 mg/kg/d) was 102.1 ± 1.5 mg/cm^2 and the BMD ([3]; Tibiae (3-month-old mice), 2 mg/kg/d) was 78.0 ± 2.2 mg/cm^2. The BMD ([3]; Tibiae (3-month-old mice), 4 mg/kg/d) was 84.5 ± 1.0 mg/cm^2, the BMD ([3]; Tibiae (3-month-old mice), 8 mg/kg/d) was 85.5 ± 0.8 mg/cm^2 and the “New Bone Width” value ([1]; 2 mg/kg/d) was 0.120 ± 0.016 mm. For the same compound, the “New Bone Width” value ([1]; 4 mg/kg/d) was 0.376 ± 0.029 mm, the “New Bone Width” value ([1]; 8 mg/kg/d) was 0.525 ± 0.035 mm and the “Bone Formation Rate: BFR/BS” value ([2]; 2 mg/kg/d, x2, mean ± SE) was 0.815 ± 0.129* μm^3/μm^2/day. The “Bone Volume (%, BV/TV)” value ([2]; 2 mg/kg/d, x2, mean ± SE) was 23.42 ± 3.13 %, the “Bone Formation Rate: BFR/BS” value ([2]; 4 mg/kg/d, x2, mean ± SE) was 1.130 ± 0.293* μm^3/μm^2/day and the “Bone Volume (%, BV/TV)” value ([2]; 4 mg/kg/d, x2, mean ± SE) was 27.21 ± 2.14 %. The “Bone Formation Rate: BFR/BS” value ([2]; 8 mg/kg/d, x2, mean ± SE) was 1.231 ± 0.181** μm^3/μm^2/day, the “Bone Volume (%, BV/TV)” value ([2]; 8 mg/kg/d, x2, mean ± SE) was 25.44 ± 1.29 % and the “Luciferase Activity (Fold Change) (BMP2 promoter-Luc)” value (shortened to “Luciferase Activity (Fold Change)”) ([4]; TN-16 0.16 μM) was 2.4 ± 0.40 Fold Change. For the same compound, the “Luciferase Activity (Fold Change)” value ([4]; TN-16 0.31 μM) was 4.0 ± 0.09 Fold Change, the “Luciferase Activity (Fold Change)” value ([4]; TN-16 0.61 μM) was 4.8 ± 0.50 Fold Change and the “Luciferase Activity (Fold Change)” value ([4]; TN-16 1.25 μM) was 5.6 ± 0.12 Fold Change. For the same compound, the “Luciferase Activity (Fold Change)” value ([4]; TN-16 2.5 μM) was 6.2 ± 0.30 Fold Change.
